Among the test systems are SK-MEL-28 melanoma; HOP-92 NSCLC; A549 NSCLC; NCI-H522 lung; HCC-2998 colon; K-562 leukemia; SNB-75 CNS.
Test in all cases: growth of human tumour cells (NCI), 48 h

The source of these data is PubChem BioAssay (NCI).

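Cultured in 96-well plates, cells were exposed to test compound for 48 hours across five concentrations. Here, GI50 denotes the concentration required for 50% inhibition of growth. The concentration for full growth arrest is given as TGI.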

For the compound `CN1CCN(CCCOc2cccc3nc(Nc4ccc(Cl)c(F)c4)ccc23)CC1`, the GI50 in the experiment on SK-MEL-28 melanoma is 1.72 µM; with HOP-92 NSCLC it was 1.33 µM; in the experiment with A549 NSCLC it was 1.96 µM; in the experiment on NCI-H522 lung, 1.75 µM; with HCC-2998 colon, 1.52 µM. Moreover, the TGI worked out at 3.21 µM in the experiment on SK-MEL-28 melanoma; 5.27 µM in the experiment on HOP-92 NSCLC; 3.65 µM in the experiment on A549 NSCLC; 3.33 µM in the experiment with NCI-H522 lung; 3.07 µM with HCC-2998 colon.
Consider `Cc1oc2nc[nH]c(=O)c2c1C(=O)/C=C/c1ccc(Cl)cc1`, for which the GI50 is 2.51 µM with SK-MEL-28 melanoma; 1.47 µM in the experiment with HOP-92 NSCLC; 2.66 µM with A549 NSCLC; 1.79 µM in the experiment on NCI-H522 lung; 1.82 µM in the experiment on K-562 leukemia; 1.79 µM with HCC-2998 colon. Also, the TGI with SK-MEL-28 melanoma is 8.77 µM; with HOP-92 NSCLC, 7.18 µM; with A549 NSCLC it was 11.2 µM; in the experiment with NCI-H522 lung, 5.74 µM; with K-562 leukemia, 11.3 µM; in the experiment on HCC-2998 colon it was 3.65 µM.
Consider `Cc1cc(N2CCN(C)CC2)nc(NCc2cc(Nc3ccnc4cc(Cl)ccc34)ccc2F)n1`, for which the GI50 in the experiment on SNB-75 CNS is 1.69 µM; in the experiment on SK-MEL-28 melanoma, 1.67 µM; with A549 NSCLC, 2.34 µM; with NCI-H522 lung it was 1.92 µM; in the experiment on K-562 leukemia, 1.9 µM; in the experiment on HCC-2998 colon it was 1.79 µM. Also, the TGI stood at 5.56 µM with SNB-75 CNS; 3.28 µM in the experiment with SK-MEL-28 melanoma; 5.3 µM in the experiment with A549 NSCLC; 3.88 µM in the experiment with NCI-H522 lung; 5.7 µM with K-562 leukemia; 4.85 µM in the experiment with HCC-2998 colon.
In the case of `COc1cc(-c2nn(-c3ccc(NC(=O)Nc4ccc(Cl)c(Cl)c4)cc3)cc2-c2ccncc2)ccc1Cl`, the GI50 was 2.13 µM in the experiment with SNB-75 CNS; 3.94 µM in the experiment with SK-MEL-28 melanoma; 2.35 µM with HOP-92 NSCLC; 3.58 µM in the experiment with A549 NSCLC; 3.51 µM in the experiment with K-562 leukemia; 2.62 µM in the experiment on HCC-2998 colon. Further, the TGI in the experiment with SNB-75 CNS was 9.75 µM; with SK-MEL-28 melanoma, 17.9 µM; in the experiment on HOP-92 NSCLC, 11.9 µM; in the experiment with A549 NSCLC, greater than 100 µM; with K-562 leukemia, greater than 100 µM; in the experiment with HCC-2998 colon it was 7.65 µM.
With `COc1ccc(Cl)cc1Nc1nc(C(F)(F)F)ccc1C(=O)N/N=C/c1ccc([N+](=O)[O-])cc1`, the GI50 in the experiment with SNB-75 CNS was 2.21 µM; with SK-MEL-28 melanoma, 2.79 µM; with A549 NSCLC, 3.41 µM; in the experiment on NCI-H522 lung, 1.62 µM; with K-562 leukemia, 2.95 µM; in the experiment with HCC-2998 colon, 1.29 µM. Further, the TGI is 12.9 µM with SNB-75 CNS; greater than 100 µM in the experiment on SK-MEL-28 melanoma; 52.7 µM with A549 NSCLC; 4.77 µM in the experiment with NCI-H522 lung; 12.6 µM in the experiment with K-562 leukemia; 7.27 µM with HCC-2998 colon.
In the case of `CC1=CC[C@@H]2C(C)(C)C(=O)CC[C@@]2(C)[C@@H]1COc1ccc2ccc(=O)oc2c1`, the GI50 is 16.7 µM in the experiment on SK-MEL-28 melanoma; 27.4 µM with HOP-92 NSCLC; 10.9 µM in the experiment on A549 NSCLC; 8.97 µM with NCI-H522 lung; 7.02 µM in the experiment on K-562 leukemia; 30.3 µM in the experiment on HCC-2998 colon. Further, the TGI in the experiment with SK-MEL-28 melanoma is 45.2 µM; in the experiment on HOP-92 NSCLC, greater than 100 µM; in the experiment with A549 NSCLC, 71.2 µM; in the experiment on NCI-H522 lung, 50.9 µM; in the experiment with K-562 leukemia, 88.7 µM; in the experiment on HCC-2998 colon, greater than 100 µM.
Turning to `CN(CCC#N)c1ccc(/C=C(\C#N)c2cccc(C(F)(F)F)c2)cc1`, the GI50 in the experiment on SNB-75 CNS was 4.47 µM; in the experiment with SK-MEL-28 melanoma it was 6.4 µM; with HOP-92 NSCLC, 3.01 µM; in the experiment on K-562 leukemia, 2.69 µM; with HCC-2998 colon it was 5.08 µM. Besides, the TGI in the experiment with SNB-75 CNS was greater than 100 µM; with SK-MEL-28 melanoma, greater than 100 µM; with HOP-92 NSCLC, 66.7 µM; in the experiment with K-562 leukemia, greater than 100 µM; in the experiment on HCC-2998 colon it was greater than 100 µM.
With `COc1cc([N+](=O)[O-])c(S(=O)(=O)O)cc1NS(=O)(=O)c1ccc(C)cc1`, the TGI in the experiment on SNB-75 CNS, with SK-MEL-28 melanoma, with A549 NSCLC, in the experiment on NCI-H522 lung and with K-562 leukemia was greater than 100 µM in each case.
On to `COc1ccc2c(c1)[C@]1(C[C@H]1c1ccc3c(/C=C/c4ccc(CN5C[C@@H](C)O[C@@H](C)C5)cc4)n[nH]c3c1)C(=O)N2`, for which the GI50 is 1.84 µM in the experiment on SNB-75 CNS; 6.2 µM in the experiment on SK-MEL-28 melanoma; 5.34 µM in the experiment with HOP-92 NSCLC; 2.72 µM in the experiment with A549 NSCLC; 6.4 µM in the experiment on NCI-H522 lung; 4.18 µM in the experiment on HCC-2998 colon. Besides, the TGI in the experiment on SNB-75 CNS is 13.4 µM; in the experiment with SK-MEL-28 melanoma, 38.1 µM; in the experiment with HOP-92 NSCLC, 39.1 µM; in the experiment with A549 NSCLC, greater than 55.4 µM; in the experiment on NCI-H522 lung it was greater than 100 µM; with HCC-2998 colon, greater than 59.7 µM.
Consider `NC1=NC(c2ccc(Cl)cc2)N(c2ccc(S(=O)(=O)Nc3ncccn3)cc2)C(N)=N1` (stereo not drawn), for which the TGI with SNB-75 CNS, in the experiment with SK-MEL-28 melanoma, with HOP-92 NSCLC, in the experiment on A549 NSCLC, in the experiment on NCI-H522 lung and with K-562 leukemia was greater than 100 µM in each case.
Consider `CCNC(C)(C)C(SS)c1ccc(Br)cc1` (stereo not drawn), for which the TGI in the experiment with SNB-75 CNS was greater than 100 µM; in the experiment on SK-MEL-28 melanoma, greater than 100 µM; in the experiment on HOP-92 NSCLC it was greater than 100 µM; in the experiment on A549 NSCLC it was greater than 100 µM; in the experiment on NCI-H522 lung it was 35.1 µM; in the experiment with K-562 leukemia it was greater than 100 µM.
On to `CN(Cc1cnc(N)nc1N)c1ccc(C(=O)O)cc1`, for which the GI50 in the experiment with SNB-75 CNS, with SK-MEL-28 melanoma, with HOP-92 NSCLC, in the experiment with A549 NSCLC, in the experiment with NCI-H522 lung and with HCC-2998 colon was greater than 100 µM in each case. In addition, the TGI in the experiment on SNB-75 CNS, with SK-MEL-28 melanoma, in the experiment on HOP-92 NSCLC, in the experiment with A549 NSCLC, in the experiment with NCI-H522 lung and in the experiment on HCC-2998 colon was greater than 100 µM in each case.
For `Cc1cc2cccnc2c2ncccc12`, the GI50 in the experiment with SNB-75 CNS is 3.24 µM; in the experiment on SK-MEL-28 melanoma, 2.56 µM; in the experiment with HOP-92 NSCLC it was 2.38 µM; in the experiment on A549 NSCLC it was 0.949 µM; in the experiment on NCI-H522 lung, 3.52 µM; with HCC-2998 colon, 2.75 µM. Moreover, the TGI was greater than 100 µM in the experiment on SNB-75 CNS; greater than 100 µM in the experiment with SK-MEL-28 melanoma; 17.2 µM in the experiment on HOP-92 NSCLC; 10.6 µM in the experiment on A549 NSCLC; 17.9 µM in the experiment with NCI-H522 lung; 68.2 µM in the experiment on HCC-2998 colon.
